From ChEMBL document CHEMBL1151486, “Decomposition of FK 409, a new vasodilator: Identification of nitric oxide as a metabolite” (Bioorg Med Chem Lett, 1995)

Organism: Oryctolagus cuniculus
Experiment: Evaluation of vasodilatory activity in Isolated rabbit aorta strips
Format: functional

CC/C(=C\C(=N/O)C(N)=O)C(C)[N+](=O)[O-] (configuration not stated)
IC50: 0.15 µM

CC/C(=C\C(=O)C(N)=O)C(C)[N+](=O)[O-] (configuration not stated)
IC50: 7 µM
